Measurements from US10634663B2, “Determination of binding constants by means of equilibrium shifting” (Sovicell GmbH, priority 2014, dated 2020).

Test system: Human plasma
Assay: Equilibrium shifting: dissociation constant for soluble target and fraction bound to whole human plasma
Experimental: Determination of the affinity or dissociation constants is carried out in an advantageous embodiment according to equation I:
[formula] wherein a plurality of binding constant values for KD^H and KD^P are first inserted into the equation and the respective APA concentrations to be expected for these values are calculated. The calculated APA concentrations are then compared with the measured APA concentration. In a further step, the smallest deviation between the calculated APA concentration and the measured APA concentration is determined by means of a numerical optimization method, preferably the “least squares” optimization method, and the formula γ=(APAmeasured−APAcalculated)^2. The lowest value for the deviation is selected from these deviations. […]
10 μL each of a 10 to 2000 μM stock solution of the test substances is added to the cavities. […] The concentration in the supernatant is determined by means of suitable methods, such as LC/MS/MS or scintillation counting. The unbound fraction of the substance is determined in cavities with the immobilized target relative to the reference samples. This obviates the need for calibration, as long as the signal to concentration ratio for the test substances and the quantitation system used follow a linear course. […]

CCCCCCCCCCCCCCCC(=O)N[C@@H](CCC(=O)NCCCC[C@H](NC(=O)[C@H](C)NC(=O)[C@H](C)NC(=O)[C@H](CCC(N)=O)NC(=O)CNC(=O)[C@H](CCC(=O)O)NC(=O)[C@H](CC(C)C)NC(=O)[C@H](Cc1ccc(O)cc1)NC(=O)[C@H](CO)NC(=O)[C@H](CO)NC(=O)[C@@H](NC(=O)[C@H](CC(=O)O)NC(=O)[C@H](CO)NC(=O)[C@@H](NC(=O)[C@H](Cc1ccccc1)NC(=O)[C@@H](NC(=O)CNC(=O)[C@H](CCC(=O)O)NC(=O)[C@H](C)NC(=O)[C@@H](N)Cc1cnc[nH]1)[C@@H](C)O)[C@@H](C)O)C(C)C)C(=O)N[C@@H](CCC(=O)O)C(=O)N[C@@H](Cc1ccccc1)C(=O)N[C@H](C(=O)N[C@@H](C)C(=O)N[C@@H](Cc1c[nH]c2ccccc12)C(=O)N[C@@H](CC(C)C)C(=O)N[C@H](C(=O)N[C@@H](CCCNC(=N)N)C(=O)NCC(=O)N[C@@H](CCCNC(=N)N)C(=O)NCC(=O)O)C(C)C)[C@@H](C)CC)C(=O)O [liraglutide]
fraction of the peptide bound to whole human plasma (undiluted) (calculated from KD^P and [P] 600 μM): 98.8%
peptide dissolved in the plasma in free, or unbound, form (whole human plasma (undiluted)): 1.2%
